Where two headings read alike, the source gives them in different places.
Molecular target: T1, Rhesus PDE2A3 (Macaca mulatta, UniProt B3VTJ2)
T1 construct: made in house; host or cells: AD293 cells, transient transfection; supernatant of sonicated lysate
T1 sequence (B3VTJ2 1-941): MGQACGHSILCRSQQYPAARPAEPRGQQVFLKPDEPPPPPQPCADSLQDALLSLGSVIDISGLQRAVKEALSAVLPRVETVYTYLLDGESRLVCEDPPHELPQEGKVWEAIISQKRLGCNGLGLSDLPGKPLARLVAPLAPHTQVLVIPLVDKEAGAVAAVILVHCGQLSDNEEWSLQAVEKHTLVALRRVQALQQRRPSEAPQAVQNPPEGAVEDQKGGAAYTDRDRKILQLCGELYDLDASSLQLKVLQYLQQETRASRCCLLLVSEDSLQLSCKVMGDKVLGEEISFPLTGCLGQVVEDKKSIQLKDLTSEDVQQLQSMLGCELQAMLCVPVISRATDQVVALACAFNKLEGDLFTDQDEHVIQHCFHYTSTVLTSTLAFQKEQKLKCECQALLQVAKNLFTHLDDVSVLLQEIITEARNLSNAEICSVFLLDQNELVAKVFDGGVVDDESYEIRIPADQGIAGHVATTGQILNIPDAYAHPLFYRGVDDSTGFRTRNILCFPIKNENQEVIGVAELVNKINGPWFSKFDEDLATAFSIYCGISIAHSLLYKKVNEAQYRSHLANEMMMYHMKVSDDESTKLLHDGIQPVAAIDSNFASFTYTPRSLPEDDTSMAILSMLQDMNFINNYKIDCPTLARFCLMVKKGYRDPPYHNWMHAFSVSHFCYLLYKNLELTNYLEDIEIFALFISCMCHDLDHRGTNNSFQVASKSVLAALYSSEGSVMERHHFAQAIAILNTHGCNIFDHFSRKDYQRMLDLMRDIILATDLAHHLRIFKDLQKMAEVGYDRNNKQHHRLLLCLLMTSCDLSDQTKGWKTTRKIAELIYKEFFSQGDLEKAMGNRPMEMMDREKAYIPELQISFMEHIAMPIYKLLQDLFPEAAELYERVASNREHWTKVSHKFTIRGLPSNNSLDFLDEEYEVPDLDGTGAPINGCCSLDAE
Assay: PDE2 fluorescence polarization (IMAP FP) inhibition assay, rhesus PDE2A3
Assay type: biochemical, rhesus macaque
Method: The activity of the compounds in accordance with the present invention as PDE2 inhibitors may be readily determined using a fluorescence polarization (FP) methodology (Huang, W., et al., J. Biomol Screen, 2002, 7: 215).
The PDE2 inhibitory activity of the compounds of the present invention was determined in accordance with the following experimental method. Rhesus PDE2A3 was amplified from rhesus macaque brain cDNA (Biochain Institute, Hayward, Calif.) using primers based on human PDE2A sequence (accession NM_002599.3) where the forward primer containing a Kozak consensus was 5′-[…]-3′ and the reverse primer was 5′-[…]-3′. Amplification with Easy-A High-Fidelity PCR cloning enzyme (Stratagene, La Jolla, Calif.) was 95° C. for 2 minutes followed by thirty three cycles of 95° C. for 40 seconds, 52° C. for 30 seconds, and 72° C. for 2 minutes 48 seconds. Final extension was 72° C. for 7 minutes. The PCR product was TA cloned into pcDNA3.3-TOPO (Invitrogen, Carlsbad, Calif.) according to standard protocol. A consensus sequence was developed from multiple clones and then deposited into GenBank (EU812167). AD293 cells (Stratagene, La Jolla, Calif.) with 70-80% confluency were transiently transfected with rhesus PDE2A3/pcDNA3.3-TOPO using Lipofectamine 2000 according to manufacturer specifications (Invitrogen, Carlsbad, Calif.). Cells were harvested 48 hours post-transfection and lysed by sonication (setting 3, 10×5 sec pulses) in a buffer containing 20 mM HEPES pH 7.4, 1 mM EDTA and Complete Protease Inhibitor Cocktail Tablets (Roche, Indianapolis, Ind.). Lysate was collected by centrifugation at 75,000×g for 20 minutes at 4° C. and supernatant utilized for evaluation of PDE2 activity. The fluorescence polarization assay for cyclic nucleotide phosphodiesterases was performed using an IMAP® FP kit supplied by Molecular Devices, Sunnyvale, Calif. (product #R8139). […] Assays were performed at room temperature in 384-well microtiter plates with an incubation volume of 20.2 μL. Solutions of test compounds were prepared in DMSO and serially diluted with DMSO to yield 8 μL of each of 10 solutions differing by 3-fold in concentration, at 32 serial dilutions per plate. […] 0% of inhibition is determined by using DMSO (1% final concentrations).
A Labcyte Echo 555 (Labcyte, Sunnyvale, Calif.) is used to dispense 200 nL from each well of the titration plate to the 384 well assay plate. Ten microliters of a solution of enzyme (1/2000 final dilution from aliquots; sufficient to produce 20% substrate conversion) was added to the assay plate. Next 10 uL of a separate solution of the substrate FAM-labeled cAMP (50 nM final concentration product # R7506 from Molecular Devices) and the activator cGMP (1 uM final concentration), prepared in the assay buffer (10 mM Tris HCl, pH 7.2, 10 mM MgCl2, 0.05% NaN3 0.01% Tween-20, and 1 mM DTT) was added to the assay plate and shaken to mix. The reaction is allowed to proceed at room temperature for 60 minutes. A binding solution is then made from the kit components, comprised of 80% Solution A, 20% Solution B and binding reagent at a volume of 1/600 the total binding solution. The enzymatic reaction is stopped by addition of 60 μL of the binding solution to each well of the assay plates and the plates are sealed and shaken for 30 seconds. The plate was incubated at room temperature for at least one hour prior to determining the fluorescence polarization (FP). The parallel and perpendicular fluorescence of each well of the plate was measured using a Tecan Genios Pro plate reader (Tecan, Switzerland) or Perkin Elmer EnVision™ plate reader (Waltham, Mass.). Fluorescence polarization (mP) was calculated from the parallel (S) and perpendicular (P) fluorescence of each sample well and the analogous values for the median control well, containing only substrate (So and Po), using the following equation: Polarization(mP)=1000*(S/So−P/Po)/(S/So+P/Po).

[1] = Lab B, read-out: Rhesus PDE2 Ki (nM) Lab B
[2] = Lab A, read-out: Rhesus PDE2 Ki (nM) Lab A

**Q.** For `Cc1nc2c(c(C)nn2C(C)C(C)(O)c2ccc(C(F)(F)F)cc2)c(=O)[nH]1` (stereo not shown) [Example 333, 1-(3-Hydroxy-3-(4-(trifluoromethyl)phenyl)butan-2-yl)-3,6-dimethyl-1H-pyrazolo[3,4-d]pyrimidin-4(5H)-one], which Ki [1] is on record?
**A.** ~29000 nM

**Q.** Which Ki [1] does the source give for `Cc1nc2c(c(C#N)nn2C(C)c2ccc(C(F)(F)F)cc2)c(=O)[nH]1` (single isomer, unassigned) [Example 253] here?
**A.** 703 nM

**Q.** With `Cc1nc2c(c(CCN)nn2C(C)c2ccc(C(F)(F)F)cc2)c(=O)[nH]1` (stereo not shown) [Example 282, 3-(2-Aminoethyl)-6-methyl-1-(1-(4-(trifluoromethyl)phenyl)ethyl)-1H-pyrazolo[3,4-d]pyrimidin-4(5H)-one] as the compound, how does the Ki [1] read?
**A.** > 2970 nM

**Q.** Which Ki [2] does the source give for `Cc1nn(C(C)c2ccc(C(F)(F)F)cc2)c2nc(CCC(=O)N(C)C)[nH]c(=O)c12` (stereo not shown) [Example 32, N,N-Dimethyl-3-(3-methyl-4-oxo-1-(1-(4-(trifluoromethyl)phenyl)ethyl)-4,5-dihydro-1H-pyrazolo[3,4-d]pyrimidin-6-yl)propanamide] here?
**A.** 275 nM

**Q.** What about the Ki [1] of the same compound?
**A.** 416 nM

**Q.** With `COCCc1nc2c(c(C)nn2C(C)c2ccc(C(F)(F)F)cc2)c(=O)[nH]1` (stereo not shown) [Example 34, 6-(2-Methoxyethyl)-3-methyl-1-(1-(4-(trifluoromethyl)phenyl)ethyl)-1H-pyrazolo[3,4-d]pyrimidin-4(5H)-one] as the compound, how does the Ki [2] read?
**A.** 267 nM

**Q.** Which results are given for `Cc1nc2c(c(C)nn2CC(C)(O)c2ccc(C(F)(F)F)cc2)c(=O)[nH]1` (stereo not shown) [Example 336, 1-(2-Hydroxy-2-(4-(trifluormethyl)phenyl)propyl)-3,6-dimethyl-1H-pyrazolo[4-d]pyrimidin-4(5H)-one]?
**A.** Ki [2]: > 1000 nM; Ki [1]: 7660 nM

**Q.** Which Ki [1] does the source give for `COc1cccc(Cc2nc3c(c(CF)nn3C(C)c3ccc(C(F)(F)F)cc3)c(=O)[nH]2)c1` (single isomer, unassigned) [Example 220, (R)- or (S)-3-(Fluoromethyl)-6-(3-methoxybenzyl)-1-(1-(4-(trifluoromethyl)phenyl)ethyl)-1H-pyrazolo[3,4-d]pyrimidin-4(5H)-one] here?
**A.** 189 nM

**Q.** `COCc1nn(C(C)c2ccc(C(F)(F)F)cc2)c2nc(C)[nH]c(=O)c12` (single isomer, unassigned) [Example 278] was tested. Which Ki [1] did it give?
**A.** 768 nM

**Q.** With `Cc1nc2c(c(C)nn2C(C)CNc2ccc(C(F)(F)F)cc2)c(=O)[nH]1` (stereo not shown) [Example 330, 3,6-Dimethyl-1-(1-(4-(trifluoromethyl)phenylamino)propan-2-yl)-1H-pyrazolo[3,4-d]pyrimidin-4(5H)-one] as the compound, how does the Ki [1] read?
**A.** 2410 nM

**Q.** `Cc1nc2c(c(CF)nn2C(C)c2ccc(S(F)(F)(F)(F)F)cc2)c(=O)[nH]1` (single isomer, unassigned) [Example 199] was tested. Which Ki [1] did it give?
**A.** 210 nM

**Q.** How did the Ki [1] turn out when `Cc1nc2c(c(CN)nn2C(C)c2ccc(C(F)(F)F)cc2)c(=O)[nH]1` (single isomer, unassigned) [Example 275] was run?
**A.** 987 nM

**Q.** How did the Ki [1] turn out when `COc1ccc(Cc2nc3c(c(CF)nn3C(C)c3ccc(C(F)(F)F)cc3)c(=O)[nH]2)cc1` (single isomer, unassigned) [Example 218, (R)- or (S)-3-(Fluoromethyl)-6-(4-methoxybenzyl)-1-(1-(4-(trifluoromethyl)phenyl)ethyl)-1H-pyrazolo[3,4-d]pyrimidin-4(5H)-one] was run?
**A.** 107 nM

**Q.** How did the Ki [1] turn out when `COCc1nc2c(c(CO)nn2C(C)c2ccc(C(F)(F)F)cc2)c(=O)[nH]1` (single isomer, unassigned) [Example 292] was run?
**A.** 473 nM

**Q.** What does the source list for `Cc1nn(C(C)c2ccc(C(F)(F)F)cc2)c2nc(C3CCOC3)[nH]c(=O)c12` (stereo not shown) [Example 33, 3-Methyl-6-(tetrahydrofuran-3-yl)-1-(1-(4-(trifluoromethyl)phenyl)ethyl)-1H-pyrazolo[3,4-d]pyrimidin-4(5H)-one]?
**A.** Ki [2]: 386 nM; Ki [1]: 531 nM

**Q.** For `Cc1nc2c(c(C(F)F)nn2C(C)c2ccc(C(F)(F)F)cc2)c(=O)[nH]1` (single isomer, unassigned) [Example 175], which Ki [1] is on record?
**A.** 419 nM

**Q.** How did the Ki [1] turn out when `CC(c1ccc(C(F)(F)F)cc1)n1nc(CO)c2c(=O)[nH]c(-c3ccco3)nc21` (racemic) [Example 294, 6-Furan-2-yl-3-(hydroxymethyl)-1-{1-[4-(trifluoromethyl)phenyl]ethyl}-1,5-dihydro-4H-pyrazolo[3,4-d]pyrimidin-4-one] was run?
**A.** ~2590 nM

Reference: patent publication US10160762B2, “6-alkyl dihydropyrazolopyrimidinone compounds as PDE2 inhibitors” (Merck Sharp & Dohme Corp., priority 2015, dated 2018)
